The values that follow come from patent US9810690B2, “Method for screening inhibitors of Ras” (Araxes Pharma LLC, priority 2015, dated 2017).

Test [1] has as its target T1, KRAS D92C/G12D (Homo sapiens, UniProt P01116, D92C/G12D).
T1 construct: made in house
The experiment in a line: Covalent modification of KRAS mutant by competition probes (TOF mass spectrometry, Agilent RapidFire). It is filed as binding. The note with it: probe 30 μM. On the procedure: (§1) KRAS mutant proteins were produced with one substituted amino acid selected from E62C, D92C, and H95C and with either glycine at the 12 position (WT) or an additional mutation to aspartic acid at the 12 position (G12D) relative to SEQ ID NO: 1 when optimally aligned. These mutations are depicted on an X-ray crystal structure in FIG. 2. These mutants were tested for reactivity (e.g., covalent modification of the KRAS mutant) with a panel of competition probes that bind the Switch II binding pocket and covalently modify the substituted amino acid with appropriately placed electrophiles based on modeling/docking studies. Screening was carried out by time-of-flight (TOF) mass spectrometry on an Agilent RapidFire system. […] Competition probe reactivity with the G12D mutant or other 12 position mutants may be optimized by iterative structural modification and testing.

The target in test [2] is T2, KRAS D92C/WT (Homo sapiens, UniProt P01116, D92C).
T2 construct: made in house
Described as above. It is filed as binding. The note with it: probe 30 μM. On the procedure: as §1

Test [3] concerns the target T3, KRAS E62C/G12D (Homo sapiens, UniProt P01116, E62C/G12D).
T3 construct: made in house
Described as above. Type of test: binding. The note with it: probe 30 μM. The method, then:
as §1

For test [4], the target named is T4, KRAS E62C/WT (Homo sapiens, UniProt P01116, E62C).
T4 construct: made in house
The description is as above. Particulars: probe 30 μM. It is filed as binding. On the procedure: as §1

Test [5] concerns the target T5, KRAS H95C/G12D (Homo sapiens, UniProt P01116, G12D/H95C).
T5 construct: made in house
The test is described as above. Type of test: binding. The note with it: probe 30 μM. The method, then: as §1

Test [6] deals with T6, KRAS H95C/WT (Homo sapiens, UniProt P01116, H95C).
T6 construct: made in house
Described as above. Type of test: binding. Particulars: probe 30 μM. The method, then: as §1

Test [7] has as its target T7, RALA G23C (Homo sapiens, UniProt P11233, G23C).
T7 construct: (residues 11-183, either WT or G23C); hexahistidine (TEV-cleavable); made in house; host or cells: Escherichia coli BL21 (DE)
T7 sequence (P11233 11-183 G23C): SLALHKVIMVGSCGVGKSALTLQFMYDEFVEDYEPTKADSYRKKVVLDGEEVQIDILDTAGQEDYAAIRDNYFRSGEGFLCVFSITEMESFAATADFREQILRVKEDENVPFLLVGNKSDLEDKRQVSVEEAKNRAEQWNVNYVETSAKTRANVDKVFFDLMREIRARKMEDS
The test is described as follows: Rate constant of covalent reaction of competition probes with RALA mutant (mass spectrometry). Type of test: binding. On the procedure:
Hexahistidine-tagged recombinant human RalA (“hexahistidine” disclosed as SEQ ID NO: 49) (residues 11-183, either WT or G23C) was transformed into Escherichia coli (BL21 (DE)). After the bacterial grew to an OD(600) of 0.4-0.6 in Terrific Broth containing 30 mg/L kanamycin at 37° C., induction was carried out at 18° C. using 0.5 mM IPTG and growth was continued at 18° C. for about 18 h. The bacteria were harvested by centrifugation and the obtained pellet was either stored at −80° C. or used freshly for the subsequent steps.
(§2) RALA mutant proteins were produced with one mutation to cysteine at the 23 position (G23C) relative to SEQ ID NO: 8 when optimally aligned. KRAS mutant proteins were produced with one mutation to cysteine at the 12 position (G12C) relative to SEQ ID NO: 1 when optimally aligned. The RALA and KRAS mutants were tested for reactivity (e.g., covalent modification of the mutant) with a panel of competition probes that bind the Switch II binding pocket and covalently modify the substituted amino acid with appropriately placed electrophiles based on modeling/docking studies. One such inhibitor covalently bound to RAS (via G12) is depicted in FIG. 2. Screening was carried out by mass spectrometry on an Agilent RapidFire or ThermoScientific Q Exactive system.

For test [8], the target named is T8, KRAS G12C (Homo sapiens, UniProt P01116, G12C).
T8 construct: made in house
The experiment in a line: Rate constant of covalent reaction of competition probes with KRAS mutant (mass spectrometry). Type of test: binding. On the procedure: as §2

Test [9] concerns the target T9, K-Ras D92C (Homo sapiens, UniProt P01116, D92C).
T9 construct: made in house
The test is described as follows: QQQ mass spectrometry competition assay for K-Ras D92C binding using competition probe CP-008. The note with it: CP-008 (100 nM); test compound over a range of concentrations; incubated for 6 h; FIG. 6. The method, then:
The GDP-loaded K-Ras D92C protein (which also contains a histidine tag) was diluted in a HEPES containing assay buffer shortly before use in the QQQ-assay.
To start the assay an internal nonreactive control compound and competition probe compound (CP-008) were added to the protein solution to form a master mix. The master mix was quickly dispersed in a 96-well plate followed by addition a DMSO stock of the compound of interest. […]
To quench the reaction, the reaction mix was transferred to 2% of formic acid in water (0.2% final in the quenched reaction) in a second plate. After sealing the second plate and quick centrifugation the samples were frozen at −80° C.
The frozen samples were sent on dry ice to Pure Honey Technologies for QQQ-quantitation to determine probe and internal control compound amount in each well. For analysis of the obtained data, the ratio of probe to internal control compound was calculated for each well. The assay window was determined by a negative control (DMSO only, no inhibition) and a positive control (100 μM final of CP-008 at a time point where the probe is fully reacted with protein; assigned 100% inhibition) and allowed the calculation of inhibition of probe depletion by the compound of interest.

SMILES strings stand for the structures.

Turning to `C=CS(=O)(=O)N1CCC(Nc2nc(N3CCN(C(C)=O)CC3)c3cc(Cl)c(-c4c(O)cccc4F)c(F)c3n2)CC1` [CP-005], the “% Covalent Modification with Indicated Protein at 6 hr, D92C/G12D” value (shortened to “% Covalent Modification … D92C/G12D”) in test [1] is 11%. For the same molecule, the “% Covalent Modification with Indicated Protein at 6 hr, D92C/WT” value (“% Covalent Modification … D92C/WT” for short) in [2] is reported as 28%. The “% Covalent Modification with Indicated Protein at 6 hr, E62C/G12D” value (from here on “% Covalent Modification … E62C/G12D”) in test [3] worked out at 6%. In test [4], the “% Covalent Modification with Indicated Protein at 6 hr, E62C/WT” value (“% Covalent Modification … E62C/WT” below) is reported as 82%. In addition, the “% Covalent Modification with Indicated Protein at 6 hr, H95C/G12D” value (“% Covalent Modification … H95C/G12D” for short) in test [5] is recorded as 12%. In test [6], the “% Covalent Modification with Indicated Protein at 6 hr, H95C/WT” value is reported as 21%.

Take `C=CC(=O)N1CCN(c2ncnc3cc(Cl)c(-c4ccc(O)cc4)cc23)CC1` [CP-017]: the “Rate Constant for Reaction with Indicated Protein, RALA G23C” value (“Rate Constant for Reaction … RALA G23C” below) in [7] is 6.0 M⁻¹ s⁻¹.

For `C=CC(=O)N1CCN(c2ccc(-c3cc(O)ccc3Cl)cc2C#N)CC1` [CP-009], the “Rate Constant for Reaction … RALA G23C” value in test [7] was under 0.2 M⁻¹ s⁻¹. Also, the “Rate Constant for Reaction with Indicated Protein, KRAS G12C” value in [8] was 5.8 M⁻¹ s⁻¹.

Take `C=CC(=O)N1CCN(c2ncnc3cc(Cl)c(-c4ccc(C#N)cc4)cc23)CC1` [CP-016]: the “Rate Constant for Reaction … RALA G23C” value in [7] was determined as 2.6 M⁻¹ s⁻¹.

On to `C=CS(=O)(=O)NC1CCN(c2nc(N3CCN(C(C)=O)CC3)c3cc(Cl)c(-c4c(O)cccc4F)c(F)c3n2)C1` (stereo not drawn) [CP-003], for which, in test [1], the “% Covalent Modification … D92C/G12D” value is 8%. Besides, the “% Covalent Modification … D92C/WT” value in [2] is on record as 89%. The “% Covalent Modification … E62C/G12D” value in test [3] was determined as 11%. The “% Covalent Modification … E62C/WT” value in test [4] stood at 86%. Moreover, in test [5], the “% Covalent Modification … H95C/G12D” value was determined as 12%.

On to `CN(C)CCCOc1nc(N2CCN(C=O)CC2)c2cc(Cl)c(-c3cc(O)cc4ccccc34)c(F)c2n1` [CP-024, 4-(6-chloro-2-(3-(dimethylamino)propoxy)-8-fluoro-7-(3-hydroxynaphthalen-1-yl)quinazolin-4-yl)piperazine-1-carbaldehyde], for which the “inhibition of competition probe (CP-008) depletion by D92C K-Ras” value in [9] is “less CP-008 is bound to K-Ras”.

For `C=CC(=O)N1CCN(c2ncnc3cc(Cl)c(-c4cccs4)cc23)CC1` [CP-018], the “Rate Constant for Reaction … RALA G23C” value in test [7] stood at 17 M⁻¹ s⁻¹.

Turning to `C=CC(=O)N1CC(N2CCN(C(=O)CNc3cc(C4(C)CC4)c(Cl)cc3O)CC2)C1` [CP-008], the “Rate Constant for Reaction … RALA G23C” value in [7] is under 0.2 M⁻¹ s⁻¹. Also, the “Rate Constant for Reaction with Indicated Protein, KRAS G12C” value in test [8] was determined as 76 M⁻¹ s⁻¹.

Take `C=CC(=O)N1CCN(c2ncnc3cc(Cl)c(-c4ccccc4)cc23)CC1` [CP-014]: in test [7], the “Rate Constant for Reaction … RALA G23C” value was 4.0 M⁻¹ s⁻¹.

Take `C=CC(=O)N1CCN(c2ncnc3cc(Cl)c(-c4ccc(Cl)cc4)cc23)CC1` [CP-013]: in test [7], the “Rate Constant for Reaction … RALA G23C” value was 10.2 M⁻¹ s⁻¹.

For the molecule `C=CC(=O)N1CCC(Nc2nc(N3CCN(C(C)=O)CC3)c3cc(Cl)c(-c4c(O)cccc4F)c(F)c3n2)C1` (stereo not drawn) [CP-006], the “% Covalent Modification … D92C/G12D” value in [1] was determined as 5%. In test [2], the “% Covalent Modification … D92C/WT” value stood at 93%. Further, in test [3], the “% Covalent Modification … E62C/G12D” value came to 2%. For the same molecule, the “% Covalent Modification … E62C/WT” value in test [4] worked out at 14%. The “% Covalent Modification … H95C/G12D” value in test [5] is on record as 4%. For the same molecule, the “% Covalent Modification with Indicated Protein at 6 hr, H95C/WT” value in test [6] is 19%.
